This is an account of results in patent US9642889B2, “Macrocyclic inhibitors of Flaviviridae viruses” (Selcia Limited, priority 2012, dated 2017).

One may read the IC50 as the concentration that inhibits the measured activity by half. Read a high IC50 as weaker potency. The EC50 is the midpoint of the concentration-response curve. A word on the inhibition: it is how much of the control response was suppressed.

The target of one test is cyclophilin A (Homo sapiens, UniProt P62937). The test can be described thus: Cyclophilin A TR-FRET competitive binding assay. Particulars: competition with CsA-Cy5 for His-tagged CypA, two-hour incubation. On the procedure:
Cyclophilin A TR-FRET Competitive Binding Assay
Inhibitor potency was measured using a competitive binding assay with a time-resolved fluorescence resonance energy transfer (TR-FRET) readout. […] An IC50 value was calculated using a four-parameter logistic fit.
On the technique in general: In TR-FRET formats the signal depends on donor and acceptor labels being close together.

Test [1] relates to Huh-7 HCV replicon cells (1b replicon). In words: anti-HCV activity in Huh-7 cell line harboring a HCV replicon (luciferase readout). The test is classed as cell-based. Particulars: for EC50: inhibition of viral replication, Huh-7 HCV replicon cells, 3 days, read-out: EC50; for inhibition at 1 µM: Huh-7, read-out: Replicon 1b % inhibition at 1 μM, 1b replicon, 1 μM compound. (In general: In antiviral work, replicon cells carry a viral genome segment that copies itself.)

Structures are written as SMILES. Read-outs that look alike come from different tables or passages of the source.

cyclophilin A, sequence (P62937 whole entry, species assumed): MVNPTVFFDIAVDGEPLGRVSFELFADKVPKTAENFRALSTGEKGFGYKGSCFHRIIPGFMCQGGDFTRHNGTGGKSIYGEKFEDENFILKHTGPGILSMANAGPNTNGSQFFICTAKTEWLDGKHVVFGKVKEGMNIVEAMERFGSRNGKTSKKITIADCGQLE

On cyclophilin A, `CC1NC(=O)C(C2CC2)OC(=O)C2(C=Cc3ccc4ccc(nc4c3)C(C)NC(=O)C3CCCN(N3)C1=O)CCC(O)C2` (single isomer, unassigned) [Compound 105] had a 50% inhibitory concentration (IC50) of 101 to 1000 nM. The “Replicon 1b % inhibition at 1 μM” value in test [1] (1b replicon, 1 μM compound, 1 µM) is on record as 2%. The EC50 in test [1] is 1100 to 10000 nM.
As for `CO[C@@H]1CC/C=C/c2cccc(c2)[C@@H](C)NC(=O)[C@@H]2CCCN(N2)C(=O)[C@H](C)NC(=O)[C@H](C(C)C)OC(=O)[C@@H]1C` [Compound 1], the concentration for half-maximal inhibition (IC50) on cyclophilin A is less than 100 nM. Further, the EC50 in test [1] (Hepatitis C virus, Huh-7, 72 h) was less than 1000 nM. Besides, the inhibition at 1 µM in test [1] (Hepatitis C virus) was 97%.
As for `CO[C@@H]1/C=C/c2cc3cc(ccc3cn2)[C@@H](C)NC(=O)[C@@H]2CCCN(N2)C(=O)[C@H](C)NC(=O)[C@H](C(C)C)OC(=O)[C@@H]1C` [Compound 2], on cyclophilin A, the concentration for half-maximal inhibition (IC50) is less than 100 nM. The EC50 in test [1] (Hepatitis C virus, Huh-7, 72 h) was less than 1000 nM. Besides, the inhibition at 1 µM in test [1] (Hepatitis C virus) was 98%.
Take `CC(C)[C@@H]1OC(=O)C/C=C/c2cc3cc(ccc3cn2)[C@@H](C)NC(=O)[C@@H]2CCCN(N2)C(=O)[C@H](C)NC1=O` [Compound 3]: the half-inhibitory concentration (IC50) on cyclophilin A was less than 100 nM. Also, the EC50 in test [1] (Hepatitis C virus, Huh-7, 72 h) is less than 1000 nM. Moreover, the inhibition at 1 µM in test [1] (Hepatitis C virus) amounted to 89%.
Taken in the same sequence, the figures for `CCC[C@@H]1C/C=C/c2cc3cc(ccc3cn2)[C@@H](C)NC(=O)[C@@H]2CCCN(N2)C(=O)[C@H](C)NC(=O)[C@H](C(C)C)OC1=O` [Compound 4] were less than 100 nM, less than 1000 nM and 100%.
The like results for `CC1/C=C/c2cc3cc(ccc3cn2)[C@@H](C)NC(=O)[C@@H]2CCCN(N2)C(=O)[C@H](C)NC(=O)[C@H](C(C)C)OC1=O` (stereo partly drawn) [Compound 5] were, in that order, less than 100 nM, less than 1000 nM and 93%.
Taken in the same sequence, the figures for `CC(C)[C@@H]1OC(=O)CCc2ccc(cc2)-c2cccc(c2)[C@@H](C)NC(=O)[C@@H]2CCCN(N2)C(=O)[C@H](C)NC1=O` [Compound 6] were less than 100 nM, less than 1000 nM and 94%.
For `CC(C)[C@@H]1OC(=O)[C@H](C)[C@H](O)CC/C=C/c2cccc(c2)[C@@H](C)NC(=O)[C@@H]2CCCN(N2)C(=O)[C@H](C)NC1=O` [Compound 7, (E)-(2R,5S,11S,14S,17R,18R)-18-Hydroxy-14-isopropyl-2,11,17-trimethyl-15-oxa-3,9,12,28-tetraaza-tricyclo[21.3.1.1*5,9*]octacosa-1(26),21,23(27),24-tetraene 4,10,13,16-tetraone], at cyclophilin A, the concentration for half-maximal inhibition (IC50) is less than 100 nM. Besides, in test [1] (Hepatitis C virus, Huh-7, 72 h), the concentration for a half-maximal effect (EC50) is less than 1000 nM. For the same molecule, the inhibition at 1 µM in test [1] (Hepatitis C virus) stood at 94%.
The like results for `CCC[C@@H]1CCCc2cc3cc(ccc3cn2)[C@@H](C)NC(=O)[C@@H]2CCCN(N2)C(=O)[C@H](C)NC(=O)[C@H](C(C)C)OC1=O` [Compound 9] were, in that order, less than 100 nM, less than 1000 nM and 100%.
Taken in the same sequence, the figures for `CC(C)[C@@H]1OC(=O)[C@H](C)[C@H](O)CCCCc2cccc(c2)[C@@H](C)NC(=O)[C@@H]2CCCN(N2)C(=O)[C@H](C)NC1=O` [Compound 10, (2R,5S,11S,14S,17R,18R)-18-Hydroxy-14-isopropyl-2,11,17-trimethyl-15-oxa-3,9,12,28-tetraaza-tricyclo[21.3.1.1*5,9*]octacosa-1(26),23(27),24-triene-4,10,13,16-tetraone] were less than 100 nM, less than 1000 nM and 92%.
`CC1/C=C/c2cc3cc(ccc3cn2)[C@@H](C)NC(=O)[C@@H]2CCCN(N2)C(=O)[C@H](C)NC(=O)[C@H](C(C)C)OC(=O)C1C` (stereo partly drawn) [Compound 11] came in with a half-inhibitory concentration (IC50) on cyclophilin A of less than 100 nM. In test [1] (Hepatitis C virus, Huh-7, 72 h), the EC50 is less than 1000 nM. Also, in test [1] (Hepatitis C virus), the inhibition at 1 µM turned out to be 96%.
For the molecule `CC(C)[C@@H]1OC(=O)C(C)(C)C/C=C/c2cc3cc(ccc3cn2)[C@@H](C)NC(=O)[C@@H]2CCCN(N2)C(=O)[C@H](C)NC1=O` [Compound 12], on cyclophilin A, the half-inhibitory concentration (IC50) was less than 100 nM. Further, in test [1] (Hepatitis C virus, Huh-7, 72 h), the EC50 is less than 1000 nM. In addition, the inhibition at 1 µM in test [1] (Hepatitis C virus) is 100%.
